Results taken from patent US20110144205A1, “Blood Glutathione as a Biomarker for Screening Asymptomatic Patients at Risk for Heart Failure” (INSERM (Institut National de la Recherche Medicale), priority 2008, published 2011).

How the values were obtained:
[1] = system: mouse model of human hypertrophic cardiomyopathy; conditions: oral NAC treatment; cited from earlier work
[2] = system: cardiomyopathic mice with missense LMNA mutation; conditions: oral NAC treatment; cited from earlier work
[3] = system: cardiomyopathic mice with missense LMNA mutation; experiment: Mouse model carrying a missense LMNA mutation and developing a dilated cardiomyopathy; assay type: in vivo; conditions: oral treatment, mouse model with missense LMNA mutation
[4] = system: heart-failing hypertensive rats; conditions: oral NAC treatment; cited from earlier work
[5] = system: postoperative atrial fibrillation; conditions: cited from earlier work

CC(=O)N[C@@H](CS)C(=O)O [NAC, N-acetylcysteine]
established hypertrophy [1]: reverses established hypertrophy
cardiac structure and function [2]: improves cardiac structure and function
heart structure and function [3]: significantly improved heart structure and function
cardiac structure and function [4]: improves cardiac structure and function
incidence of postoperative atrial fibrillation (AF) ([5]; intravenous infusion for 1 h before and 48 h after cardiac surgery, Ozaydin et al. 2008): decreased the incidence of postoperative atrial fibrillation
post-operative atrial fibrillation ([5]; oral NAC treatment, patients): prevents post-operative atrial fibrillation
